# Measurements from patent US11124476B2, “Tunable nitric oxide-releasing macromolecules having multiple nitric oxide donor structures” (The University of North Carolina at Chapel Hill, priority 2011, dated 2021).
# Test: NO release from NO-releasing co-condensed silica, Nitric Oxide Analyzer, physiological condition
# Assay type: physicochemical
# Experimental: A variety of single and multi-donor co-condensed silica macromolecules were synthesized. […] FIGS. 8A and 8B illustrate the same release profiles with normalized maximum NO concentration. FIG. 8B illustrates the same release profiles, with normalized maximum NO concentration, as FIG. 8A, but is an expanded view of the release profiles. All release profiles were collected with a Nitric Oxide Analyzer under physiological condition at pH=7.4 and 37° C.
# To make NO-releasing co-condensed silica with programmed release profile, the different silane diazeniumdiolate monomer solutions were mixed at the pre-set ratios. The mixture is then added into a flask with pre-cooled ethanol with nitrogen protection. The mixture is further cooled to −15° C. and pre-set amount of backbone silane (TEOS or TMOS) is added. When the mixture temperature equilibriums to −15° C., the ammonium hydroxide aqueous solution is added. The reaction is then warmed rapidly to 15° and stirred for additional 3 hours. The content is then filtered. The solid is washed with dry ethanol twice and then dried extensively.
compound,measurement,value
CCCCCCCCCCCCNCCCCCCN(CCCCCCCCCCCC)/[N+]([O-])=N/O [MAP3 diazeniumdiolate],duration of NO release,only a few minutes
